“Also recorded” adds a separate entry of the source.
Legend:
[1] = Hygroscopicity assessment by dynamic vapor sorption (DVS); type: physicochemical; details: for weight gain under 80% Relative Humidity: DVS, 10 mg sample, 80% RH
Protocol: Hygroscopicity of 10 mg Form I of the present disclosure was tested using dynamic vapor sorption (DVS). 5.
About hygroscopicity characterization description and definition of hygroscopicity (Chinese Pharmacopoeia 2010 edition appendix XIXJ Drug hygroscopic test guidelines, test at 25° C.+/−1° C., 80% Relative Humidity) • deliquescent: sufficient water is absorbed to form a liquid; • very hygroscopic: increase in mass is equal to or greater than 15 percent; • hygroscopic: increase in mass is less than 15 percent and equal to or greater than 2 percent; • slightly hygroscopic: increase in mass is less than 2 percent and equal to or greater than 0.2 percent. • no or almost no hygroscopic: increase in mass is less than 0.2%.
Hygroscopicity of 10 mg of phosphate crystalline Form A and phosphate crystalline Form C of the present disclosure were tested using dynamic vapor sorption (DVS). The DVS plot of phosphate crystalline Form A is shown in FIG. 23, The DVS plot of phosphate crystalline Form C is shown in FIG. 24.
Pharmacopoeia 2010 edition appendix XIXJ Drug hygroscopic test guidelines, test at 25° C.+/−1° C., 80% Relative Humidity) • deliquescent: sufficient water is absorbed to form a liquid; • very hygroscopic: increase in mass is equal to or greater than 15 percent; • hygroscopic: increase in mass is less than 15 percent and equal to or greater than 2 percent; • slightly hygroscopic: increase in mass is less than 2 percent and equal to or greater than 0.2 percent. • no or almost no hygroscopic: increase in mass is less than 0.2%.

[2] = Stability assessment: storage under stress conditions, XRPD after storage; type: physicochemical; details: for stability (overall conclusion in words): solid form stability on storage; for Form Change: XRPD
Protocol: The crystalline Form I of the present disclosure was stored under 5° C., 25° C./60% RH and 40° C./75% relative humidity for 90 days. XRPD patterns were collected after storage.
The crystalline Form II of the present disclosure was stored under 5° C. and 25° C./60% RH. XRPD patterns were collected after storage.
Phosphate Form A of the present disclosure was stored under 5° C., 25° C./60% RH and 40° C./75% RH for 90 days. XRPD patterns were collected after storage.
Two of 10 mg of phosphate Form C were respectively opened stored at 25° C./60% RH and 40° C./75% RH for 30 days. XRPD and purity of the sample were collected after storage.

JAK2 = JAK2 (Homo sapiens, UniProt O60674); details: kinase detection, selectivity over JAK3; cited from earlier work
Sequence of JAK2 (O60674 whole entry): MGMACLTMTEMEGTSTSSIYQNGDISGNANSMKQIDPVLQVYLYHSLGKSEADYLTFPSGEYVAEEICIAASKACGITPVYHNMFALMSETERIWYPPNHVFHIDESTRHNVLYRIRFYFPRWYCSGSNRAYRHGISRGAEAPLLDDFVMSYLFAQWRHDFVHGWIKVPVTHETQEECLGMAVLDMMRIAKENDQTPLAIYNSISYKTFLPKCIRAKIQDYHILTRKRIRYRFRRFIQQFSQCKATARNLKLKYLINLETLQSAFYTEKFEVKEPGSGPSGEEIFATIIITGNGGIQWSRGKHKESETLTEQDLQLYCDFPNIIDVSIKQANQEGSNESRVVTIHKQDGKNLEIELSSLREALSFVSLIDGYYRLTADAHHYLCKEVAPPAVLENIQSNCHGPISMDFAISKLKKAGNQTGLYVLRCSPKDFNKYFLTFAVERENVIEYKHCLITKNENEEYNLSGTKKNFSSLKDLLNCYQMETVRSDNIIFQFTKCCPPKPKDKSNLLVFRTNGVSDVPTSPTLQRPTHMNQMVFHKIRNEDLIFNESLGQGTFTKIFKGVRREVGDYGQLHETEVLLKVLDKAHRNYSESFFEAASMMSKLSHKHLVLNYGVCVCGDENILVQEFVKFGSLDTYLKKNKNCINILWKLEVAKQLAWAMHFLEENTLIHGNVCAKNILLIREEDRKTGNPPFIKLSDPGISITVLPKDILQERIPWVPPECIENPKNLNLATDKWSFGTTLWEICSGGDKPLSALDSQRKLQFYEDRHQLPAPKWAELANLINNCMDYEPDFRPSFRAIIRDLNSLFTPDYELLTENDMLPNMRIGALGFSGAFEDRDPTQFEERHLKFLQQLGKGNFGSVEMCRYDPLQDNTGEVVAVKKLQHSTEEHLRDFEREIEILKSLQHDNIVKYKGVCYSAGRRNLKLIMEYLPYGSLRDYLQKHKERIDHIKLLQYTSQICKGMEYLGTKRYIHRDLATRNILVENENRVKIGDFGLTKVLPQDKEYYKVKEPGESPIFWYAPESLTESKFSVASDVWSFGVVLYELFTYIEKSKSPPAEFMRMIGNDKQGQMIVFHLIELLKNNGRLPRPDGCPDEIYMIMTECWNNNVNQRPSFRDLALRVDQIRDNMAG

[3] = stored at 25° C./60% RH for 90 days
[4] = stored at 40° C./75% RH for 90 days
[5] = stored at 25° C./60% RH for 30 days

Row | SMILES | weight gain under 80% Relative Humidity [1] | stability (overall conclusion in words) [2] | Form Change ([2]; stored at 5° C. for 90 days) | Form Change [2, 3] | Form Change [2, 4] | Form Change [2, 5] | also measured
1 | CCS(=O)(=O)N1CC(CC#N)(n2cc(-c3ncnc4[nH]ccc34)cn2)C1 [phosphate Form A] | 0.99% | good stability | remains unchanged | remains unchanged | remains unchanged | – | weight gain under 80% Relative Humidity ([1]; listed as phosphate Form A of the compound Formula (I)): 0.99%; Form Change ([2]; stored at 5° C. for 90 days, listed as Phosphate Crystalline Form A): Form A remain unchanged; Form Change ([2]; stored at 25° C./60% RH for 90 days, listed as Phosphate Crystalline Form A): Form A remain unchanged; Form Change ([2]; stored at 40° C./75% RH for 90 days, listed as Phosphate Crystalline Form A): Form A remain unchanged
2 | CCS(=O)(=O)N1CC(CC#N)(n2cc(-c3ncnc4[nH]ccc34)cn2)C1 [Form I] | – | good stability | remains unchanged; also recorded: Form I remain unchanged | remains unchanged; also recorded: Form I remain unchanged | remains unchanged; also recorded: Form I remain unchanged | – | hygroscopicity class ([1]; Chinese Pharmacopoeia 2010 definition, 25° C.+/-1° C., 80% Relative Humidity): slightly hygroscopic (slightly hygroscopic: increase in mass is less than 2 percent and equal to or greater than 0.2 percent); weight gain under 80% Relative Humidity ([1]; listed as Form I of the compound Formula (I)): 0.44%
3 | CCS(=O)(=O)N1CC(CC#N)(n2cc(-c3ncnc4[nH]ccc34)cn2)C1 [Baricitinib] | – | – | – | – | – | – | inhibition strength for JAK2 relative to JAK3 (JAK2): 100 times
4 | CCS(=O)(=O)N1CC(CC#N)(n2cc(-c3ncnc4[nH]ccc34)cn2)C1 [phosphate Form C] | 2.85% | – | – | – | – | Form C remain | weight gain under 80% Relative Humidity ([1]; listed as phosphate Form C of the compound Formula (I)): 2.85%; Form Change ([2]; stored at 40° C./75% RH for 30 days): Form C remain
5 | CCS(=O)(=O)N1CC(CC#N)(n2cc(-c3ncnc4[nH]ccc34)cn2)C1 [Form II] | – | good stability | remains unchanged; also recorded: Form II remain unchanged | – | – | remains unchanged; also recorded: Form II remain unchanged | –

— patent US10377757B2, “Crystal form of JAK inhibitor and preparation method thereof” (CRYSTAL PHARMATECH CO., LTD, priority 2015, dated 2019)
